The target of test [1] is [GSPT1]-[compound of formula (I)]-[CRBN/DDB1] complex (Homo sapiens, UniProt P15170+Q96SW2). The test is described as follows: AlphaLISA ternary complex formation assay (GSPT1). As to conditions: 0.5 h; 1 μM compound; normalized to reference compound CC-885; read-out: Normalized AlphaLISA ternary complex average signal at 1 μM molecule. It is filed as binding. The gist of the method: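 Biotinylated GSPT1 on streptavidin donor beads and 6×His-CRBN/DDB1 on anti-His acceptor beads (each 200 nM before mixing) in HBS pH 7.4 with 0.1% Tween-20 and 1 mM DTT, 2% DMSO final, 30 min at 25 °C. AlphaLISA luminescence is normalized between DMSO background and the reference compound's maximum.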
[GSPT1]-[compound of formula (I)]-[CRBN/DDB1] complex, sequence (P15170 whole entry): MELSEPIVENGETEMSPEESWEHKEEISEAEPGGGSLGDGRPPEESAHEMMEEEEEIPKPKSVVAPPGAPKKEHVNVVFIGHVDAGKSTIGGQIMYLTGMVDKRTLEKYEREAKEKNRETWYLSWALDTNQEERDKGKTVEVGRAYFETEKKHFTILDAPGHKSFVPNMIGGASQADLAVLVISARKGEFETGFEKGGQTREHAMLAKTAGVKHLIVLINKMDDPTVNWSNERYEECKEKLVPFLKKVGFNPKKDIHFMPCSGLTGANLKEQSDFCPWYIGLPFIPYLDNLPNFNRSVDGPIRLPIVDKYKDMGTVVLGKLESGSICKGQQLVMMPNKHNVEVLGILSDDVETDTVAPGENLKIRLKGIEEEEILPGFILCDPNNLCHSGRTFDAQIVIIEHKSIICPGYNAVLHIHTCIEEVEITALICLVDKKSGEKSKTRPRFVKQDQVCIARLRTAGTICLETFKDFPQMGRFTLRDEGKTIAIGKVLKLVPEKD
[GSPT1]-[compound of formula (I)]-[CRBN/DDB1] complex, sequence (Q96SW2 whole entry): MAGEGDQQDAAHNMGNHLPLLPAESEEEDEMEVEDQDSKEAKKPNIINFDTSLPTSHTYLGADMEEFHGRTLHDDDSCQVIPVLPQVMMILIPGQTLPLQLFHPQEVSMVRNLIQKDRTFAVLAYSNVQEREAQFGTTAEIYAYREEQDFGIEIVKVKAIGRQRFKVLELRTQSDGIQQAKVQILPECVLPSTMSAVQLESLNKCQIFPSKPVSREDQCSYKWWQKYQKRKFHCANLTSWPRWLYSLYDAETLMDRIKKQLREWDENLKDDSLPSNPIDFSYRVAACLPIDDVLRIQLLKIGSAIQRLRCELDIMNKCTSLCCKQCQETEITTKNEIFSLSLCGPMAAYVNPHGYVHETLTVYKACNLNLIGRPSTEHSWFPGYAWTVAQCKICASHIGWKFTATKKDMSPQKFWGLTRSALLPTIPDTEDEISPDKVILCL
[GSPT1]-[compound of formula (I)]-[CRBN/DDB1] complex, sequence (Q16531 whole entry partner): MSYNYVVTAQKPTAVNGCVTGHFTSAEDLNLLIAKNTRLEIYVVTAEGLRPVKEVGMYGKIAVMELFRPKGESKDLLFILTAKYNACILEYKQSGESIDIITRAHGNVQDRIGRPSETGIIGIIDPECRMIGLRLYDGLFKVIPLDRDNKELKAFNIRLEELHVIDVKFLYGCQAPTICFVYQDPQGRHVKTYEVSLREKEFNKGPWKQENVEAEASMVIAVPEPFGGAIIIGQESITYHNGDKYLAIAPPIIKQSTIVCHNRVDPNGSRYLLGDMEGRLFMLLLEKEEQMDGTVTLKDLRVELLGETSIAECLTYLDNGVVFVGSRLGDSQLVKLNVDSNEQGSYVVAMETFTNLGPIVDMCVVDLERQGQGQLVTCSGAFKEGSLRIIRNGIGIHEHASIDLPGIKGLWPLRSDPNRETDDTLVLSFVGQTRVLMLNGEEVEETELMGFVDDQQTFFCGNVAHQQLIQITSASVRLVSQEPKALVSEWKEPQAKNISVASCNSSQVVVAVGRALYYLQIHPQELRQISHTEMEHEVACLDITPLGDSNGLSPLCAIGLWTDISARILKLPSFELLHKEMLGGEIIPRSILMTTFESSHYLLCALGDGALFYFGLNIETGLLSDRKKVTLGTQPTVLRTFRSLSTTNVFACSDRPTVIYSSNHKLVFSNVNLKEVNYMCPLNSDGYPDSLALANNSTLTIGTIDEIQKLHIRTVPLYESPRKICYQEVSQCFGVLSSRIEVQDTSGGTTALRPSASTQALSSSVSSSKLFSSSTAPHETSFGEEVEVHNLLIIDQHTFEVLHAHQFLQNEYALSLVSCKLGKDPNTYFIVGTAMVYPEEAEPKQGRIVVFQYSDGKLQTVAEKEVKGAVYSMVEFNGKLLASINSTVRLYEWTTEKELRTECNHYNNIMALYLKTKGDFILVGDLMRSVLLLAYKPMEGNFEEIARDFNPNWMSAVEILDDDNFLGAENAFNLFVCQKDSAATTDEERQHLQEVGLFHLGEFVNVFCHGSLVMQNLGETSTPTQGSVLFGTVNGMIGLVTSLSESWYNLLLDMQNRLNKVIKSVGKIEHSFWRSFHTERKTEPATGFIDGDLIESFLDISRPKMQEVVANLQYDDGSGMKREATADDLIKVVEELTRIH

Test [2] deals with T1, [SALL4 ZF2]-[compound]-[CRBN/DDB1] ternary complex (Homo sapiens, UniProt Q96SW2+Q9UJQ4).
T1 construct: SALL4 ZF2
T1 sequence (Q9UJQ4 410-432 limits assumed): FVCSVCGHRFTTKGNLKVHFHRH
T1 sequence (Q96SW2 whole entry): as the sequence (Q96SW2 whole entry) above
T1 sequence (Q16531 whole entry partner): as the sequence (Q16531 whole entry partner) above
The test is described as follows: AlphaLISA assay for off-target recruitment detection, SALL4 ZF2. It is filed as binding. As to conditions: 1 μM compound; normalized to Lenalidomide; read-out: Normalized ternary complex response, SALL4 ZF2. The method, boiled down:
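Neo-substrate with 40 μg/ml donor beads and 200 nM 6×His-CRBN/DDB1 with 40 μg/ml anti-His acceptor beads were each prepared in PBS pH 7.4 with Tween-20 and 1 mM DTT, preincubated 30 min at RT, then mixed. Compounds at 2% DMSO were incubated 30 min at 25 °C, read at 680/615 nm, and normalised between DMSO background and reference glue maximum.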

Test [3] deals with T2, GSPT1-HiBiT protein in GSPT1-HiBiT HEK293 cells (Homo sapiens, UniProt P15170+Q96SW2).
T2 construct: endogenous in cells; host or cells: HEK293 (CRISPR/Cas9 knock-in of HiBiT at the GSPT1 locus)
T2 sequence (P15170 whole entry): as the sequence (P15170 whole entry) above
T2 sequence (Q96SW2 whole entry): as the sequence (Q96SW2 whole entry) above
T2 sequence (Q16531 whole entry partner): as the sequence (Q16531 whole entry partner) above
The test is described as follows: GSPT1 degradation assay using HiBiT system (Nano-Glo HiBiT lytic assay). It is filed as cell-based. As to conditions: 6 hours treatment; for DC50: read-out: HiBiT lytic assay Geomean absolute DC50. From the text: The effect of selected compounds of the invention on GSPT1 protein levels was investigated, using the GSPT1-HiBiT HEK293 cell line and the Nano-Glo HiBiT degradation assay protocol below.
GSPT1-HiBiT HEK293 cells were generated in-house using the HEK293 parental cells (ATCC, cat. no 70016364) and the CRISPR/Cas9 system. HEK293 cells were transformed with pSpCas9-BB-2A-Puro v2.0 plasmid carrying gRNA targeting the C-terminus of GSPT1 and ssODN template containing the HiBiT tag sequence with flanking homology sequences. Neon Transfection System (Thermo Fisher Scientific) was used for electroporation. HEK293 GSPT1-HiBiT cells were cultured with DMEM Glutamax (Gibco) supplemented with 10% heat inactivated FBS (Gibco). After transfection the culture medium was changed to DMEM Glutamax with 10% heat-inactivated FBS and 1% Penicillin-Streptomycin (Biowest) supplemented with Puromycin (2 μg/ml; Invivogen) for clonal selection. In order to isolate single cell clones for further validation and analysis, limiting dilution cloning in 96-well plates was performed. When the single clones reached confluency, HiBiT Lytic Assay (Promega) was performed in order to identify HiBiT positive clones. The clone selected for further studies was verified and validated using genotyping and HiBiT Blotting (Promega).
Cells were maintained in DMEM Glutamax medium, supplemented with 1% penicillin/streptomycin and 10% Fetal Bovine Serum (FBS) at 37° C., 5% CO2. Compounds were stored frozen as 20 mM DMSO stocks.
For the Nano-Glo HiBiT assay, cells were seeded onto 384-well white solid bottom plate at 2×10^3 cells/well in 40 μL using the Agilent BioTek MultiFlo FX Multimode Dispenser and incubated overnight. Following overnight incubation (37° C., 5% CO2) cells were treated with the test compounds and vehicle only (DMSO) control using the Echo 555 Liquid Handler. Twelve data-point compound titration curve with concentrations ranging from 10 μM to 0.03 nM was used. Final DMSO concentration was kept constant at 0.25% v/v across the assay plate. After 6 hours of incubation (37° C., 5% CO2), plates were removed from the incubator and let to equilibrate to RT. Luminescent signal detection was conducted using the Nano-Glo HiBiT Lytic Detection System (Promega, cat. nr N3050). Nano-Glo HiBiT Lytic Reagent was prepared freshly by diluting the LgBiT Protein (1:100 vol/vol) and the Nano-Glo HiBiT Lytic Substrate (1:50 vol/vol) in the relevant volume of the Nano-Glo HiBiT Lytic Buffer. 40 μL of the HiBiT Lytic Reagent was added per well, plates were shaken to facilitate lysis (350 rpm, 5 min, RT) and incubated in the dark for the following 10 min. Luminescence was read using the PHERAstar multimode plate reader (BMG LABTECH). The raw data (the relative luminescence unit values, RLU) were uploaded under the relevant protocol and analysed in CDDVault data management platform. Luminescence (RLU) values were normalized to the controls, and reported absolute DC50 values and Dmax values were calculated in CDDVault using non-linear regression and appropriate equations.

Where only a bound is given, the exact number is not on record here.

Experimental findings from US20260232682A1, “GSPT1 DEGRADER COMPOUNDS” (Captor Therapeutics S.A., priority 2023, published 2026) are described below.

As to `Cc1nc2cc(COC(=O)Nc3ccc4c(c3)OCCO4)ccc2cc1C1CCC(=O)NC1=O` (stereo not shown) [Compound 15, (3-(2,6-dioxopiperidin-3-yl)-2-methylquinolin-7-yl)methyl (2,3-dihydrobenzo[b][1,4]dioxin-6-yl)carbamate], the activation at 1 µM in test [1] was 10 to 50%; in test [2] it was less than 10%. Also, the Dmax in test [3] was not below 75%. Moreover, the half-maximal degradation concentration (DC50) in test [3] was less than 10 nM.

As for `Cc1ccc(NC(=O)OCc2ccc3cc(N4CCC(=O)NC4=O)c(C)nc3c2)cc1Cl` [Compound 28, (3-(2,4-dioxotetrahydropyrimidin-1(2H)-yl)-2-methylquinolin-7-yl)methyl (3-chloro-4-methylphenyl)carbamate], the activation at 1 µM in test [1] was in the range of 10 to 50%. Moreover, in test [2], the activation at 1 µM is less than 10%. Besides, in test [3], the Dmax is not below 75% and the DC50 was 10 to 50 nM.

As for `Cc1ccc(NC(=O)OCc2ccc3cc(C4CCC(=O)NC4=O)c(C)nc3c2F)cc1Cl` (stereo not shown) [Compound 50, (3-(2,6-dioxopiperidin-3-yl)-8-fluoro-2-methylquinolin-7-yl)methyl (3-chloro-4-methylphenyl)carbamate], the values for the activation at 1 µM in test [1] and in test [2] were more than 50% and less than 10%, respectively. This compound also displayed a Dmax in test [3] not below 75%. Besides, in test [3], the 50% degradation concentration (DC50) was 10 to 50 nM.

For the compound `Cc1nc2cc(COC(=O)Nc3cc(C(C)(C)C)no3)ccc2cc1N1CCC(=O)NC1=O` [Compound 72, (3-(2,4-dioxotetrahydropyrimidin-1(2H)-yl)-2-methylquinolin-7-yl)methyl (3-(tert-butyl)isoxazol-5-yl)carbamate], the activation at 1 µM in test [1] lay within 10 to 50%. In addition, the activation at 1 µM in test [2] is less than 10%. Besides, in test [3], the Dmax was not below 75% and the DC50 fell in the range of 10 to 50 nM.

On to `COc1cc(C)c(Cl)cc1NC(=O)OCc1ccc2cc(C3CCC(=O)NC3=O)c(C)nc2c1` (stereo not shown) [Compound 21, (3-(2,6-dioxopiperidin-3-yl)-2-methylquinolin-7-yl)methyl (5-chloro-2-methoxy-4-methylphenyl)carbamate], for which the activation at 1 µM in test [1] is more than 50%; in test [2], less than 10%. Besides, the Dmax in test [3] was not below 75%. Moreover, the DC50 in test [3] was 10 to 50 nM.

Regarding `Cc1nc2cc(COC(=O)Nc3ccc(N4CCOCC4)nc3)ccc2cc1C1CCC(=O)NC1=O` (stereo not shown) [Compound 42, (3-(2,6-dioxopiperidin-3-yl)-2-methylquinolin-7-yl)methyl (6-morpholinopyridin-3-yl)carbamate], the activation at 1 µM in test [1] is more than 50%. Also, the activation at 1 µM in test [2] is less than 10%. Further, in test [3], the Dmax is not below 75% and the DC50 is 10 to 50 nM.

On to `Cc1nc2cc(CNC(=O)Nc3cc(C(C)(C)C)no3)ccc2cc1N1CCC(=O)NC1=O` [Compound 64, 1-(3-(tert-butyl)isoxazol-5-yl)-3-((3-(2,4-dioxotetrahydropyrimidin-1(2H)-yl)-2-methylquinolin-7-yl)methyl)urea], for which the activation at 1 µM in test [1] is 10 to 50%. In addition, in test [2], the activation at 1 µM was less than 10%. In test [3], the Dmax was not below 75% and the DC50 was more than 100 nM.

On to `Cc1nc2cc(COC(=O)Nc3csc(-c4ccccc4)c3)ccc2cc1C1CCC(=O)NC1=O` (stereo not shown) [Compound 37, (3-(2,6-dioxopiperidin-3-yl)-2-methylquinolin-7-yl)methyl (5-phenylthiophen-3-yl)carbamate], for which the activation at 1 µM was 10 to 50% in test [1] and less than 10% in test [2]. This compound returned a maximal degradation (Dmax) in test [3] not below 75%. In test [3], the half-maximal degradation concentration (DC50) was 10 to 50 nM.

On to `Cc1ccc(NC(=O)OCc2ccc3c(C)c(C4CCC(=O)NC4=O)c(C)nc3c2)cc1Cl` (stereo not shown) [Compound 44, (3-(2,6-dioxopiperidin-3-yl)-2,4-dimethylquinolin-7-yl)methyl (3-chloro-4-methylphenyl)carbamate], for which, in test [1], the activation at 1 µM is 10 to 50%. Also, the activation at 1 µM in test [2] was less than 10%. Also, in test [3], the Dmax was not below 75% and the DC50 was less than 10 nM.

Take `Cc1nc2cc(COC(=O)Nc3cc(C(C)(C)C)no3)ccc2cc1C1CCC(=O)NC1=O` (stereo not shown) [Compound 30, (3-(2,6-dioxopiperidin-3-yl)-2-methylquinolin-7-yl)methyl (3-(tert-butyl)isoxazol-5-yl)carbamate]: the values for the activation at 1 µM in test [1] and in test [2] were more than 50% and less than 10%, respectively. Moreover, the Dmax in test [3] is not below 75%. Also, the DC50 in test [3] was less than 10 nM.

On to `Cc1ncc(NC(=O)OCc2ccc3cc(C4CCC(=O)NC4=O)c(C)nc3c2)cc1Cl` (stereo not shown) [Compound 58, (3-(2,6-dioxopiperidin-3-yl)-2-methylquinolin-7-yl)methyl (5-chloro-6-methylpyridin-3-yl)carbamate], for which the figures for the activation at 1 µM in test [1] and in test [2] were more than 50% and less than 10%, respectively. Also, the maximal degradation (Dmax) in test [3] was not below 75%. Besides, in test [3], the DC50 is less than 10 nM.

Turning to `Cc1nc2cc(COC(=O)Nc3cccc(-c4ccccc4)c3)ccc2cc1C1CCC(=O)NC1=O` (stereo not shown) [Compound 46, (3-(2,6-dioxopiperidin-3-yl)-2-methylquinolin-7-yl)methyl [1,1′-biphenyl]-3-ylcarbamate], the activation at 1 µM in test [1] is 10 to 50%. Also, in test [2], the activation at 1 µM is less than 10%. Further, in test [3], the Dmax is not below 75% and the 50% degradation concentration (DC50) fell in the range of 10 to 50 nM.

`Cc1nc2cc(COC(=O)Nc3ccc4c(c3)OCO4)ccc2cc1C1CCC(=O)NC1=O` (stereo not shown) [Compound 14, (3-(2,6-dioxopiperidin-3-yl)-2-methylquinolin-7-yl)methyl benzo[d][1,3]dioxol-5-ylcarbamate]: the activation at 1 µM in test [1] fell in the range of 10 to 50%. For the same compound, the activation at 1 µM in test [2] was less than 10%. For the same compound, in test [3], the maximal degradation (Dmax) is not below 75% and the DC50 lay within 10 to 50 nM.

On to `Cc1nc2cc(COC(=O)Nc3cccc(C(C)(C)C)c3)ccc2cc1C1CCC(=O)NC1=O` (stereo not shown) [Compound 9, (3-(2,6-dioxopiperidin-3-yl)-2-methylquinolin-7-yl)methyl (3-(tert-butyl)phenyl)carbamate], for which the figures for the activation at 1 µM in test [1] and in test [2] were 10 to 50% and less than 10%, respectively. Further, the maximal degradation (Dmax) in test [3] is not below 75%. In test [3], the DC50 lay within 10 to 50 nM.

As for `Cc1nc2cc(COC(=O)Nc3cc(C4(C(F)(F)F)CC4)no3)ccc2cc1C1CCC(=O)NC1=O` (stereo not shown) [Compound 81, (3-(2,6-dioxopiperidin-3-yl)-2-methylquinolin-7-yl)methyl (3-(1-(trifluoromethyl)cyclopropyl)isoxazol-5-yl)carbamate], the activation at 1 µM was more than 50% in test [1] and less than 10% in test [2]. The same compound came in with a Dmax in test [3] not below 75%. Further, in test [3], the DC50 is less than 10 nM.

In the case of `Cc1nc2cc(COC(=O)Nc3ccc(Cl)c(Cl)c3)ccc2cc1C1CCC(=O)NC1=O` (stereo not shown) [Compound 12, (3-(2,6-dioxopiperidin-3-yl)-2-methylquinolin-7-yl)methyl (3,4-dichlorophenyl)carbamate], the activation at 1 µM in test [1] lay within 10 to 50%. Moreover, the activation at 1 µM in test [2] was less than 10%. In addition, in test [3], the Dmax is not below 75% and the half-maximal degradation concentration (DC50) fell in the range of 10 to 50 nM.
